Reference: patent US20210045385A1, “PYRIDAZINONE-SUBSTITUTED KETOXIMES AS HERBICIDES” (FMC Corporation, priority 2018, published 2021)

Tests used:
Assay type in all cases: in vivo
[1] = system: Italian ryegrass (Lolium multiflorum); test: Test A postemergence, visual plant response rating; conditions: for Ryegrass, Italian plant response rating: 125 g ai/ha, 0 to 100 scale (0 no effect, 100 complete control)
Summary of the method: (§1)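 Preemergence: seeds in loam/sand blend given directed soil spray of compound in non-phytotoxic solvent with surfactant. Postemergence: plants 2–10 cm, one- to two-leaf stage, sprayed with same formulation. Visual injury rated vs untreated controls after ~10 days in greenhouse, 0 (no effect) to 100 (complete control).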

[2] = system: corn (Zea mays); test: Test A postemergence, visual plant response rating; conditions: for Corn plant response rating: Postemergence, 125 g ai/ha, 0 to 100 scale (0 no effect, 100 complete control)
Summary of the method: as §1

[3] = system: galium (catchweed bedstraw, Galium aparine); test: Test A postemergence, visual plant response rating; conditions: for Galium plant response rating: Postemergence, 125 g ai/ha, 0 to 100 scale (0 no effect, 100 complete control)
Summary of the method: as §1

[4] = system: kochia (Kochia scoparia); test: Test A postemergence, visual plant response rating; conditions: for Kochia plant response rating: Postemergence, 125 g ai/ha, 0 to 100 scale (0 no effect, 100 complete control)
Summary of the method: as §1

[5] = system: wheat (Triticum aestivum); test: Test A postemergence, visual plant response rating; conditions: for Wheat plant response rating: 0 to 100 scale (0 no effect, 100 complete control)
Summary of the method: as §1

[6] = system: blackgrass (Alopecurus myosuroides); test: Test A postemergence, visual plant response rating; conditions: for Blackgrass plant response rating: Postemergence, 125 g ai/ha, 0 to 100 scale (0 no effect, 100 complete control)
Summary of the method: as §1

[7] = system: barnyardgrass (Echinochloa crus-galli); test: Test A postemergence, visual plant response rating; conditions: for Barnyardgrass plant response rating: Postemergence, 125 g ai/ha, 0 to 100 scale (0 no effect, 100 complete control)
Summary of the method: as §1

[8] = system: pigweed (Amaranthus retroflexus); test: Test A postemergence, visual plant response rating; conditions: for Pigweed plant response rating: Postemergence, 125 g ai/ha, 0 to 100 scale (0 no effect, 100 complete control)
Summary of the method: as §1

[9] = system: ragweed (common ragweed, Ambrosia elatior); test: Test A postemergence, visual plant response rating; conditions: for Ragweed plant response rating: Postemergence, 125 g ai/ha, 0 to 100 scale (0 no effect, 100 complete control)
Summary of the method: as §1

[10] = system: foxtail, giant (giant foxtail, Setaria faberii); test: Test A postemergence, visual plant response rating; conditions: for Foxtail, Giant plant response rating: Postemergence, 125 g ai/ha, 0 to 100 scale (0 no effect, 100 complete control)
Summary of the method: as §1

[11] = system: ducksalad (Heteranhera limosa); test: Test B flooded paddy test, visual plant response rating; conditions: 250 g ai/ha, Flood, applied to paddy water, 2-leaf stage, evaluated after 13 to 15 days
Summary of the method: (§2)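 Test pots are flooded 3 cm above the soil at treatment, and the test substance is introduced into this standing water. After keeping the flood level and growing plants, treated at the 2-leaf stage, for 13 to 15 days under glass, injury is assessed visually versus controls.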

[12] = system: sedge, umbrella (small-flower umbrella sedge, Cyperus difformis); test: as above; conditions: 250 g ai/ha, Flood, applied to paddy water, 2-leaf stage, evaluated after 13 to 15 days
Summary of the method: as §2

[13] = system: barnyardgrass (Echinochloa crus-galli); test: as above; conditions: 250 g ai/ha, Flood, applied to paddy water, 2-leaf stage, evaluated after 13 to 15 days
Summary of the method: as §2

[14] = system: rice (Oryza sativa); test: as above; conditions: 250 g ai/ha, Flood, applied to paddy water, 2-leaf stage, evaluated after 13 to 15 days
Summary of the method: as §2

[15] = system: Italian ryegrass (Lolium multiflorum); test: Test A preemergence, visual plant response rating; conditions: for Ryegrass, Italian plant response rating: preemergence, 0 to 100 scale, 0 no effect, 100 complete control; for Ryegrass, Italian plant response rating (0 to 100 scale): 500 g ai/ha Preemergence, approx. 10 days
Summary of the method: as §1

[16] = system: kochia (Kochia scoparia); test: Test A preemergence, visual plant response rating; conditions: for Kochia plant response rating: preemergence, 0 to 100 scale, 0 no effect, 100 complete control; for Kochia plant response rating (0 to 100 scale): 500 g ai/ha Preemergence, approx. 10 days
Summary of the method: as §1

[17] = system: barnyardgrass (Echinochloa crus-galli); test: Test A preemergence, visual plant response rating; conditions: for Barnyardgrass plant response rating: preemergence, 0 to 100 scale, 0 no effect, 100 complete control; for Barnyardgrass plant response rating (0 to 100 scale): 500 g ai/ha Preemergence, approx. 10 days
Summary of the method: as §1

[18] = system: pigweed (Amaranthus retroflexus); test: Test A preemergence, visual plant response rating; conditions: for Pigweed plant response rating: preemergence, 0 to 100 scale, 0 no effect, 100 complete control; for Pigweed plant response rating (0 to 100 scale): 500 g ai/ha Preemergence, approx. 10 days
Summary of the method: as §1

[19] = system: ragweed (common ragweed, Ambrosia elatior); test: Test A preemergence, visual plant response rating; conditions: for Ragweed plant response rating: preemergence, 0 to 100 scale, 0 no effect, 100 complete control; for Ragweed plant response rating (0 to 100 scale): 500 g ai/ha Preemergence, approx. 10 days
Summary of the method: as §1

[20] = system: foxtail, giant (giant foxtail, Setaria faberii); test: Test A preemergence, visual plant response rating; conditions: for Foxtail, Giant plant response rating: preemergence, 0 to 100 scale, 0 no effect, 100 complete control; for Foxtail, Giant plant response rating (0 to 100 scale): 500 g ai/ha Preemergence, approx. 10 days
Summary of the method: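 Formulated in a non-phytotoxic solvent mixture including surfactant, each test chemical was sprayed onto the soil surface after sowing, or onto seedlings 2 to 10 cm high. Roughly 10 days later, plants were compared with untreated controls and rated for injury from 0 (no effect) to 100 (complete control).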

[21] = 500 g ai/ha, postemergence, 0 is no effect, 100 is complete control
[22] = 31 g ai/ha Postemergence, approx. 10 days

| SMILES | Ryegrass, Italian plant response rating (0 to 100 scale) [1, 21] | Ryegrass, Italian plant response rating ([1]; Postemergence) | Corn plant response rating [2] | Galium plant response rating [3] | Kochia plant response rating [4] | Blackgrass plant response rating [6] | Barnyardgrass plant response rating [7] | Pigweed plant response rating [8] | Ragweed plant response rating [9] | Foxtail, Giant plant response rating [10] | Plant response rating, Ducksalad (0 to 100 scale, 0 is no effect, 100 is complete control) [11] | Plant response rating, Sedge, Umbrella (0 to 100 scale, 0 is no effect, 100 is complete control) [12] | Plant response rating, Barnyardgrass (0 to 100 scale, 0 is no effect, 100 is complete control) [13] | Plant response rating, Rice (0 to 100 scale, 0 is no effect, 100 is complete control) [14] | Ryegrass, Italian plant response rating ([15]; 125 g ai/ha) | Kochia plant response rating ([16]; 125 g ai/ha) | Barnyardgrass plant response rating ([17]; 125 g ai/ha) | Pigweed plant response rating ([18]; 125 g ai/ha) | Ragweed plant response rating ([19]; 125 g ai/ha) | Foxtail, Giant plant response rating ([20]; 125 g ai/ha) | other results |
| --- | --- | --- | --- | --- | --- | --- | --- | --- | --- | --- | --- | --- | --- | --- | --- | --- | --- | --- | --- | --- | --- |
| C#CCO/N=C(\c1c(O)c(C)nn(C)c1=O)c1ccc(F)c2ccccc12 [Compound 108, 4-[(Z)-(4-fluoro-1-naphthalenyl)(2-propyn-1-yloxy)imino]methyl-5-hydroxy-2,6-dimethyl-3(2H)-pyridazinone] | 100 | 100 | 30 | 100 | 60 | 100 | 90 | 90 | 80 | 80 | 0 | 0 | 0 | 0 | 100 | 50 | 90 | 100 | 90 | 100 | Corn plant response rating (0 to 100 scale) [2, 21]: 80; Galium plant response rating (0 to 100 scale) [3, 21]: 100; Kochia plant response rating (0 to 100 scale) [4, 21]: 80; Wheat plant response rating (0 to 100 scale) [5, 21]: 80; Wheat plant response rating ([5]; Postemergence, 125 g ai/ha): 70; Blackgrass plant response rating (0 to 100 scale) [6, 21]: 100; Barnyardgrass plant response rating (0 to 100 scale) [7, 21]: 90; Pigweed plant response rating (0 to 100 scale) [8, 21]: 100; Ragweed plant response rating (0 to 100 scale) [9, 21]: 100; Foxtail, Giant plant response rating (0 to 100 scale) [10, 21]: 90; Ryegrass, Italian plant response rating (0 to 100 scale) [15]: 100; Kochia plant response rating (0 to 100 scale) [16]: 100; Barnyardgrass plant response rating (0 to 100 scale) [17]: 100; Pigweed plant response rating (0 to 100 scale) [18]: 100; Ragweed plant response rating (0 to 100 scale) [19]: 100; Foxtail, Giant plant response rating (0 to 100 scale) [20]: 100 |
| CO/N=C(/c1cc(Cl)ccc1C(F)(F)F)c1c(O)c(C)nn(C)c1=O [Compound 95] | 100 | 80 | 0 | 80 | 60 | 60 | 50 | 70 | 80 | 60 | 0 | 0 | 0 | 0 | 90 | 10 | 60 | 50 | 30 | 80 | Corn plant response rating (0 to 100 scale) [2, 21]: 40; Galium plant response rating (0 to 100 scale) [3, 21]: 90; Kochia plant response rating (0 to 100 scale) [4, 21]: 80; Wheat plant response rating (0 to 100 scale) [5, 21]: 70; Wheat plant response rating ([5]; Postemergence, 125 g ai/ha): 40; Blackgrass plant response rating (0 to 100 scale) [6, 21]: 100; Barnyardgrass plant response rating (0 to 100 scale) [7, 21]: 60; Pigweed plant response rating (0 to 100 scale) [8, 21]: 80; Ragweed plant response rating (0 to 100 scale) [9, 21]: 90; Foxtail, Giant plant response rating (0 to 100 scale) [10, 21]: 80; Ryegrass, Italian plant response rating (0 to 100 scale) [15]: 100; Kochia plant response rating (0 to 100 scale) [16]: 70; Barnyardgrass plant response rating (0 to 100 scale) [17]: 60; Pigweed plant response rating (0 to 100 scale) [18]: 100; Ragweed plant response rating (0 to 100 scale) [19]: 100; Foxtail, Giant plant response rating (0 to 100 scale) [20]: 100 |
| CO/N=C(/c1c(O)c(Cl)nn(C)c1=O)c1cccc2ccccc12 [Compound 145, 6-chloro-5-hydroxy-4-[(E)-(methoxyimino)-1-naphthalenylmethyl]-2-methyl-3(2H)-pyridazinone] | 10 | – | 0 | 90 | 80 | 30 | 30 | 30 | 100 | 30 | 0 | 0 | 0 | 0 | 0 | 70 | 60 | 50 | 100 | 50 | Ryegrass, Italian plant response rating (0 to 100 scale) ([1]; Postemergence, rate not given, approx. 10 days): 20; Corn plant response rating (0 to 100 scale) [2, 21]: 0; Galium plant response rating (0 to 100 scale) [3, 21]: 100; Kochia plant response rating (0 to 100 scale) [4, 21]: 90; Wheat plant response rating ([5]; Postemergence, 500 g ai/ha): 0; Wheat plant response rating (0 to 100 scale) ([5]; Postemergence, approx. 10 days): 0; Blackgrass plant response rating (0 to 100 scale) [6, 21]: 70; Barnyardgrass plant response rating (0 to 100 scale) [7, 21]: 60; Pigweed plant response rating (0 to 100 scale) [8, 21]: 80; Ragweed plant response rating (0 to 100 scale) [9, 21]: 100; Foxtail, Giant plant response rating (0 to 100 scale) [10, 21]: 60; Ryegrass, Italian plant response rating (0 to 100 scale) [15]: 10; Kochia plant response rating (0 to 100 scale) [16]: 90; Barnyardgrass plant response rating (0 to 100 scale) [17]: 80; Pigweed plant response rating (0 to 100 scale) [18]: 90; Ragweed plant response rating (0 to 100 scale) [19]: 100; Foxtail, Giant plant response rating (0 to 100 scale) [20]: 80 |
| CON=C(c1c(OC(C)=O)c(C)nn(C)c1=O)c1cccc2ccccc12 [Compound 120] | – | 30 | 0 | 80 | 30 | 20 | 20 | 50 | 20 | 40 | 0 | 0 | 0 | 0 | 10 | 10 | 10 | 100 | 10 | 50 | Ryegrass, Italian plant response rating (0 to 100 scale) [1, 22]: 0; Corn plant response rating (0 to 100 scale) [2, 22]: 0; Galium plant response rating (0 to 100 scale) [3, 22]: 40; Kochia plant response rating (0 to 100 scale) [4, 22]: 10; Wheat plant response rating (0 to 100 scale) [5, 22]: 0; Wheat plant response rating ([5]; Postemergence, 125 g ai/ha): 0; Blackgrass plant response rating (0 to 100 scale) [6, 22]: 0; Barnyardgrass plant response rating (0 to 100 scale) [7, 22]: 0; Pigweed plant response rating (0 to 100 scale) [8, 22]: 30; Ragweed plant response rating (0 to 100 scale) [9, 22]: 0; Foxtail, Giant plant response rating (0 to 100 scale) [10, 22]: 0; Ryegrass, Italian plant response rating ([15]; 31 g ai/ha): 0; Kochia plant response rating ([16]; 31 g ai/ha): 0; Barnyardgrass plant response rating ([17]; 31 g ai/ha): 0; Pigweed plant response rating ([18]; 31 g ai/ha): 60; Ragweed plant response rating ([19]; 31 g ai/ha): 0; Foxtail, Giant plant response rating ([20]; 31 g ai/ha): 20 |
